In US20240197761A1, “FUCOSYLATION AND IMMUNE MODULATION IN CANCER” (H. LEE MOFFITT CANCER CENTER AND RESEARCH INSTITUTE, INC., priority 2021, published 2024):

Columns and labels:
[1] = test system: human PBMC-derived, CD3/CD28-activated CD4+T cells; assay: Phosphoproteomic and fuco-proteomic mass spectrometric profiling of CD4+T cells; type: cell-based; settings: 250 μM L-fucose, 48 h
Description: FIGS. 14A-14E show Fucosylation of CD4^+T cells affects PKA activity and actin polymerization; and the identification of Integrin P5 as a highly fucosylated protein in activated CD4+ T cells. (a) Top 5 pathways in human CD4^+T cells that are affected by increased fucosylation identified by Ingenuity Pathway Analysis (Qiagen; pathways were identified from phosphoproteomic analyses of CD3/CD28-activated human PBMC-derived CD4^+T cells treated L-fucose (LF) isolated from 3 independent healthy human donors (D1, D2, D3)). (b) (left) Immunoblot of PKA phosphorylated substrates (top) and Ponceau staining (bottom) of human PBMC-derived, CD3/CD28-activated CD4^+T cells that were treated ±250 μM LF±10 μM forskolin (Fkn, a PKA agonist). (right) Densitometric quantification of selected bands (red dashed boxes) normalized to Ponceau staining. (c) Immunoblot of β-actin (top) and Ponceau staining (middle) of human PBMC-derived, CD3/CD28 activated CD4^+T cells were treated ±250 μM LF±25 mM DTSP crosslinker (x-link). (bottom) Densitometric quantification of high molecular weight β-actin oligomers (red dashed boxes) normalized to Ponceau intensity and then normalized to −LF, -x-link samples. (d) Top 5 AAL-bound (fucosylated) proteins in human PBMC-derived, CD3/CD28-activated CD4^+T cells from (a) that were identified by Ingenuity Pathway Analysis (Qiagen). […]

[2] = test system: PD-L1 on WM793, SW1 and SM1 cells; assay: Cell surface PD-L1 (flow cytometry); type: cell-based; settings: human or mouse melanoma cells, 250 μM
Description: FIGS. 22A-221 show Schematic of L-PLA staining and verification of fucosylated HLA-DRB1 staining, which is weakly associated with tumor peripheral CD4+T cells; and the effects of L-fucose on tumor PD-L1 expression (a) Schematic of lectin-mediated proximity ligation analysis (L-PLA) using fucosylated HLA-DRB1 (fuco-HLA-DRB1) as an example. We stained for (i) HLA-DRB1 using […]-HLA-DRB1 followed by (+) oligo-conjugated PLA secondary and (ii) fucosylated glycan using biotinylated (“B”) AAL lectin followed by D-biotin followed by (−) oligo-conjugated PLA secondary. Ligated PLA oligos were subjected to rolling circle amplification PCR (RCA PCR), giving rise to fluorescent punctae. […] Single melanoma marker, AAL-FITC, and HLA-DRB1 channels are shown in white for clearer visualization. […] (d) FFPE melanoma tissues were subjected to L-PLA HLA-DRB1 staining ±500 mM L-fucose wash and subsequent staining with melanoma marker (MART1+SI10 cocktail), and DAPI. Single melanoma marker and fuco-HLA-DRB1 channels are shown in white for clear visualization. […]
HLA-DRB1, and PD-L1: Indicated cells were treated for 72 h with DMSO, 250 μM fucosyltransferase inhibitor (FUTi) (Millipore Sigma (St. Louis, MO)), or 250 μM of L-fucose (Biosynth (Oak Terrace, IL)). […] Samples were analyzed using FlowJo analysis software (BD Biosciences (San Jose, CA)). […]

SMILES: C[C@H](O)[C@@H](O)[C@@H](O)[C@H](O)C=O [L-fucose]
- Protein Kinase A (PKA) and actin signaling [1]: significantly altering
- cell surface levels of PD-L1 [2]: does not alter
